Measurements reported in PubChem BioAssay (NCI).
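Test compounds were applied to cells in 96-well plates for 48 hours at 5 doses. At the GI50, growth is halved. At the TGI there is no net growth.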

Experiments:
Experiment in all cases: inhibition of tumour cell growth, NCI panel, 48 h
[1] = tested on: 786-0 renal
[2] = tested on: A498 renal
[3] = tested on: A549 NSCLC
[4] = tested on: ACHN renal
[5] = tested on: BT-549 breast
[6] = tested on: CAKI-1 renal
[7] = tested on: CCRF-CEM leukemia
[8] = tested on: COLO 205 colon
[9] = tested on: DU-145 prostate
[10] = tested on: EKVX NSCLC
[11] = tested on: HCC-2998 colon
[12] = tested on: HCT-116 colon
[13] = tested on: HCT-15 colon
[14] = tested on: HL-60(TB) leukemia
[15] = tested on: HOP-62 NSCLC
[16] = tested on: HOP-92 NSCLC
[17] = tested on: HS 578T breast
[18] = tested on: HT29 colon
[19] = tested on: IGROV1 ovarian
[20] = tested on: K-562 leukemia
[21] = tested on: KM12 colon
[22] = tested on: LOX IMVI melanoma
[23] = tested on: M14 melanoma
[24] = tested on: MALME-3M melanoma
[25] = tested on: MCF7 breast
[26] = tested on: MDA-MB-231 breast
[27] = tested on: MDA-MB-435
[28] = tested on: MDA-MB-468 breast
[29] = tested on: MOLT-4 leukemia
[30] = tested on: NCI-H226 lung
[31] = tested on: NCI-H23 lung
[32] = tested on: NCI-H460 lung
[33] = tested on: NCI-H522 lung
[34] = tested on: NCI/ADR-RES ovarian
[35] = tested on: OVCAR-3 ovarian
[36] = tested on: OVCAR-4 ovarian
[37] = tested on: OVCAR-5 ovarian
[38] = tested on: OVCAR-8 ovarian
[39] = tested on: PC-3 prostate
[40] = tested on: RPMI-8226 leukemia
[41] = tested on: RXF 393 renal
[42] = tested on: SF-268 CNS
[43] = tested on: SF-295 CNS
[44] = tested on: SF-539 CNS
[45] = tested on: SK-MEL-2 melanoma
[46] = tested on: SK-MEL-28 melanoma
[47] = tested on: SK-MEL-5 melanoma
[48] = tested on: SK-OV-3 ovarian
[49] = tested on: SN12C renal
[50] = tested on: SNB-19 CNS
[51] = tested on: SNB-75 CNS
[52] = tested on: SR leukemia
[53] = tested on: SW-620 colon
[54] = tested on: T-47D breast
[55] = tested on: TK-10 renal
[56] = tested on: U251 CNS
[57] = tested on: UACC-257 melanoma
[58] = tested on: UACC-62 melanoma
[59] = tested on: UO-31 renal

COc1ccc(CN2[C@@H](C(=O)NCc3ccc(C(=O)NO)cc3)Cc3c([nH]c4ccccc34)[C@@H]2C2CC2)cc1
GI50 [1]: 3.98 µM
TGI [1]: 13 µM
GI50 [2]: 2.77 µM
TGI [2]: 7.99 µM
GI50 [3]: 3.54 µM
TGI [3]: 9.02 µM
GI50 [4]: 3.52 µM
TGI [4]: 9.33 µM
GI50 [5]: 4.99 µM
TGI [5]: 9.96 µM
GI50 [6]: 2.39 µM
TGI [6]: 6.73 µM
GI50 [7]: 0.996 µM
TGI [7]: > 19.8 µM
GI50 [8]: 3.47 µM
TGI [8]: 8.03 µM
GI50 [9]: 4.38 µM
TGI [9]: > 19.8 µM
GI50 [10]: 3.2 µM
TGI [10]: 10.9 µM
GI50 [11]: 2.6 µM
TGI [11]: 5.59 µM
GI50 [12]: 2.08 µM
TGI [12]: > 19.8 µM
GI50 [13]: 3.75 µM
TGI [13]: 10.5 µM
GI50 [14]: 2.73 µM
TGI [14]: > 19.8 µM
GI50 [15]: 3.48 µM
TGI [15]: 8.58 µM
GI50 [16]: 2.62 µM
TGI [16]: 6.65 µM
GI50 [17]: 1.85 µM
TGI [17]: 14.4 µM
GI50 [18]: 4.84 µM
TGI [18]: > 19.8 µM
GI50 [19]: 2.6 µM
TGI [19]: 5.78 µM
GI50 [20]: 1.67 µM
TGI [20]: > 19.8 µM
GI50 [21]: 3.51 µM
TGI [21]: 16.7 µM
GI50 [22]: 2.37 µM
TGI [22]: 4.81 µM
GI50 [23]: 4.07 µM
TGI [23]: > 19.8 µM
GI50 [24]: 0.847 µM
TGI [24]: 4.17 µM
GI50 [25]: 2.33 µM
TGI [25]: 12 µM
GI50 [26]: 2.43 µM
TGI [26]: 7.52 µM
GI50 [27]: 0.638 µM
TGI [27]: 2.67 µM
GI50 [28]: 1 µM
TGI [28]: 4.34 µM
GI50 [29]: 1.85 µM
TGI [29]: > 19.8 µM
GI50 [30]: 3.41 µM
TGI [30]: 10.1 µM
GI50 [31]: 2.75 µM
TGI [31]: 5.77 µM
GI50 [32]: 3.14 µM
TGI [32]: 9.21 µM
GI50 [33]: 0.964 µM
TGI [33]: 5.06 µM
GI50 [34]: 4.05 µM
TGI [34]: 13.8 µM
GI50 [35]: 3.41 µM
TGI [35]: 14.7 µM
GI50 [36]: 4.74 µM
TGI [36]: > 19.8 µM
GI50 [37]: 1.87 µM
TGI [37]: 6.05 µM
GI50 [38]: 2.56 µM
TGI [38]: 9.71 µM
GI50 [39]: 3.12 µM
TGI [39]: > 19.8 µM
GI50 [40]: 2.92 µM
TGI [40]: > 19.8 µM
GI50 [41]: 0.797 µM
TGI [41]: 4.09 µM
GI50 [42]: 4.4 µM
TGI [42]: 13 µM
GI50 [43]: 2.92 µM
TGI [43]: 6.05 µM
GI50 [44]: 2.48 µM
TGI [44]: 5.71 µM
GI50 [45]: 4.11 µM
TGI [45]: 12 µM
GI50 [46]: 1.98 µM
TGI [46]: 5.88 µM
GI50 [47]: 2.6 µM
TGI [47]: 5.25 µM
GI50 [48]: 2.87 µM
TGI [48]: 6.97 µM
GI50 [49]: 3.86 µM
TGI [49]: 13.4 µM
GI50 [50]: 2.89 µM
TGI [50]: 6.8 µM
GI50 [51]: 1.13 µM
TGI [51]: 5.68 µM
GI50 [52]: > 19.8 µM
TGI [52]: > 19.8 µM
GI50 [53]: 2.26 µM
TGI [53]: 8.03 µM
GI50 [54]: 3.82 µM
TGI [54]: 12.6 µM
GI50 [55]: 3.17 µM
TGI [55]: 10.1 µM
GI50 [56]: 2.67 µM
TGI [56]: 6.78 µM
GI50 [57]: 2.39 µM
TGI [57]: 9.74 µM
GI50 [58]: 1.55 µM
TGI [58]: 4.6 µM
GI50 [59]: 3 µM
TGI [59]: 5.72 µM

O=c1[nH]c2ccccc2cc1CSc1ccc(Nc2nccc(-c3ccc(C(F)(F)F)cc3)n2)cc1
GI50 [1]: 1.53 µM
TGI [1]: 3.29 µM
GI50 [2]: 1.93 µM
TGI [2]: 3.84 µM
GI50 [3]: 2.12 µM
TGI [3]: 10.1 µM
GI50 [4]: 1.85 µM
TGI [4]: 10.8 µM
GI50 [5]: 2.66 µM
TGI [5]: 17.1 µM
GI50 [6]: 1.66 µM
TGI [6]: 7.13 µM
GI50 [7]: 3.51 µM
TGI [7]: > 100 µM
GI50 [8]: 9.82 µM
TGI [8]: 74.1 µM
GI50 [9]: 13.2 µM
TGI [9]: > 100 µM
GI50 [10]: 3.5 µM
TGI [10]: 40.5 µM
GI50 [11]: 6.89 µM
TGI [11]: > 100 µM
GI50 [12]: 0.0885 µM
TGI [12]: 11.6 µM
GI50 [13]: 2.27 µM
TGI [13]: 69.7 µM
GI50 [14]: > 100 µM
TGI [14]: > 100 µM
GI50 [15]: 1.81 µM
TGI [15]: 4.45 µM
GI50 [16]: 2.32 µM
TGI [16]: 15.2 µM
GI50 [17]: 0.403 µM
TGI [17]: 4.64 µM
GI50 [18]: 3.46 µM
TGI [18]: > 100 µM
GI50 [19]: 17 µM
TGI [19]: 43.6 µM
GI50 [20]: 13.9 µM
TGI [20]: > 100 µM
GI50 [21]: 94.3 µM
TGI [21]: > 100 µM
GI50 [22]: 3.63 µM
TGI [22]: 19.5 µM
GI50 [23]: 16.8 µM
TGI [23]: 61.3 µM
GI50 [24]: 6.51 µM
TGI [24]: 22.6 µM
GI50 [25]: 4.55 µM
TGI [25]: > 100 µM
GI50 [26]: 1.66 µM
TGI [26]: 9.04 µM
GI50 [27]: 11.9 µM
TGI [27]: 55.4 µM
GI50 [28]: 3.33 µM
TGI [28]: 18.2 µM
GI50 [29]: 4.83 µM
TGI [29]: > 100 µM
GI50 [30]: 1.52 µM
TGI [30]: 3.8 µM
GI50 [31]: 4 µM
TGI [31]: 18.8 µM
GI50 [32]: 0.0643 µM
TGI [32]: 1.53 µM
GI50 [33]: 6.19 µM
TGI [33]: 28.7 µM
GI50 [34]: 1.32 µM
TGI [34]: 6.21 µM
GI50 [35]: 1.38 µM
TGI [35]: 3.58 µM
GI50 [36]: 1.23 µM
TGI [36]: 3.95 µM
GI50 [37]: 30.6 µM
TGI [37]: > 100 µM
GI50 [38]: 1.94 µM
TGI [38]: 5.97 µM
GI50 [39]: 6.77 µM
TGI [39]: 61.5 µM
GI50 [40]: 61.6 µM
TGI [40]: > 100 µM
GI50 [41]: 2.67 µM
TGI [41]: 13 µM
GI50 [42]: 2.97 µM
TGI [42]: 20.9 µM
GI50 [43]: 1.62 µM
TGI [43]: 5.72 µM
GI50 [44]: 2.7 µM
TGI [44]: 10.9 µM
GI50 [45]: 18.7 µM
TGI [45]: 39.5 µM
GI50 [46]: 20.6 µM
TGI [46]: > 100 µM
GI50 [47]: 15.4 µM
TGI [47]: 45.9 µM
GI50 [48]: 15.6 µM
TGI [48]: 30.6 µM
GI50 [49]: 16.7 µM
TGI [49]: 40.8 µM
GI50 [50]: 2.32 µM
TGI [50]: 10.3 µM
GI50 [51]: 0.714 µM
TGI [51]: 3.88 µM
GI50 [52]: > 100 µM
TGI [52]: > 100 µM
GI50 [53]: 5.53 µM
TGI [53]: > 100 µM
GI50 [54]: 1.84 µM
TGI [54]: 54.3 µM
GI50 [55]: 1.6 µM
TGI [55]: 3.97 µM
GI50 [56]: 0.198 µM
TGI [56]: 2.61 µM
GI50 [57]: 29.2 µM
TGI [57]: > 100 µM
GI50 [58]: 15.4 µM
TGI [58]: 33 µM
GI50 [59]: 4.82 µM
TGI [59]: 19.6 µM
